Source: the supplement of paper PMC11451515

System: SEM cells
Test: cell viability relative to DMSO control; higher = less cytotoxic
Conditions: 48 h
Outline: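 Library compounds in DMSO were pin-dosed in an 11-point threefold series (47 μM to 0.79 nM) onto leukemia cells in 1536-well plates (5 μl). Plates held 500 cells/well of NOMO1 or SEM or 1000 cells/well of P12-Ichikawa, each adapted for at least four passages in each medium. Luminescence was read with CellTiter-Glo One after 48 h at 37°C. Viability means the per-plate percentage relative to DMSO wells, using cell-free wells as background.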

[1] = HPLM + 10% dialyzed FBS, 0.000781 µM
[2] = HPLM + 10% dialyzed FBS, 0.00234 µM
[3] = HPLM + 10% dialyzed FBS, 0.00702 µM
[4] = HPLM + 10% dialyzed FBS, 0.0211 µM
[5] = HPLM + 10% dialyzed FBS, 0.0632 µM
[6] = HPLM + 10% dialyzed FBS, 0.19 µM
[7] = HPLM + 10% dialyzed FBS, 0.569 µM
[8] = HPLM + 10% dialyzed FBS, 1.71 µM
[9] = HPLM + 10% dialyzed FBS, 5.12 µM
[10] = HPLM + 10% dialyzed FBS, 15.4 µM
[11] = HPLM + 10% dialyzed FBS, 46.1 µM
[12] = RPMI 5 mM glucose + 10% FBS, 0.000781 µM
[13] = RPMI 5 mM glucose + 10% FBS, 0.00234 µM
[14] = RPMI 5 mM glucose + 10% FBS, 0.00702 µM
[15] = RPMI 5 mM glucose + 10% FBS, 0.0211 µM
[16] = RPMI 5 mM glucose + 10% FBS, 0.0632 µM
[17] = RPMI 5 mM glucose + 10% FBS, 0.19 µM
[18] = RPMI 5 mM glucose + 10% FBS, 0.569 µM
[19] = RPMI 5 mM glucose + 10% FBS, 1.71 µM
[20] = RPMI 5 mM glucose + 10% FBS, 5.12 µM
[21] = RPMI 5 mM glucose + 10% FBS, 15.4 µM
[22] = RPMI 5 mM glucose + 10% FBS, 46.1 µM
[23] = RPMI 5 mM glucose + 10% dialyzed FBS, 0.000781 µM
[24] = RPMI 5 mM glucose + 10% dialyzed FBS, 0.00234 µM
[25] = RPMI 5 mM glucose + 10% dialyzed FBS, 0.00702 µM
[26] = RPMI 5 mM glucose + 10% dialyzed FBS, 0.0211 µM
[27] = RPMI 5 mM glucose + 10% dialyzed FBS, 0.0632 µM
[28] = RPMI 5 mM glucose + 10% dialyzed FBS, 0.19 µM
[29] = RPMI 5 mM glucose + 10% dialyzed FBS, 0.569 µM
[30] = RPMI 5 mM glucose + 10% dialyzed FBS, 1.71 µM
[31] = RPMI 5 mM glucose + 10% dialyzed FBS, 5.12 µM
[32] = RPMI 5 mM glucose + 10% dialyzed FBS, 15.4 µM
[33] = RPMI 5 mM glucose + 10% dialyzed FBS, 46.1 µM

Structure (SMILES) | cell viability [1] [%] | cell viability [2] [%] | cell viability [3] [%] | cell viability [4] [%] | cell viability [5] [%] | cell viability [6] [%] | cell viability [7] [%] | cell viability [8] [%] | cell viability [9] [%] | cell viability [10] [%] | cell viability [11] [%] | cell viability [12] [%] | cell viability [13] [%] | cell viability [14] [%] | cell viability [15] [%] | cell viability [16] [%] | cell viability [17] [%] | cell viability [18] [%] | cell viability [19] [%] | cell viability [20] [%] | cell viability [21] [%] | cell viability [22] [%] | cell viability [23] [%] | cell viability [24] [%] | cell viability [25] [%] | cell viability [26] [%] | cell viability [27] [%] | cell viability [28] [%] | cell viability [29] [%] | cell viability [30] [%] | cell viability [31] [%] | cell viability [32] [%] | cell viability [33] [%]
COC[C@H](c1ccc(C(F)(F)F)cc1)N1CCN(C2(C)CCN(C(=O)c3c(C)ncnc3C)CC2)C[C@H]1C.O=C(O)/C=C\C(=O)O | 80.5 | 98.2 | 105 | 93.5 | 90 | 104 | 90.2 | 92 | 99.8 | 95.4 | 61.8 | 66 | 94.5 | 82.9 | 97.5 | 85.6 | 87.6 | 84.5 | 99.6 | 92.4 | 83.8 | 59.6 | 85.2 | 93.2 | 97.1 | 108 | 88.6 | 97.3 | 103 | 104 | 84 | 98 | 65.8
CNCc1ccc(-c2[nH]c3cc(F)cc4c3c2CCNC4=O)cc1 | 101 | 103 | 126 | 148 | 122 | 118 | 117 | 133 | 155 | 141 | 109 | 106 | 118 | 128 | 123 | 134 | 127 | 143 | 152 | 163 | 153 | 128 | 94.5 | 110 | 115 | 115 | 95.7 | 130 | 126 | 136 | 115 | 120 | 106
